Laboratory results reported in US7074784B2, “Medicaments against viral diseases” (priority 2000, dated 2006).

How the values were obtained:
HepG2.2.15 cells = test: Cytotoxicity determination in HepG2.2.15 cells; assay type: cell-based; conditions: 50% of the cells show a morphology comparable to the cell control
From the text: Before harvesting the supernatants to determine the antiviral effect, the HepG2.2.15 cells were examined under the light microscope or by means of biochemical detection methods (for example Alamar Blue stain or Trypan Blue stain) for cytotoxic changes.
Substance-induced cytotoxic or cytostatic changes in the HepG2.2.15 cells were detected, for example, under the light microscope as changes in cell morphology. Such substance-induced changes in the HepG2.2.15 cells compared with untreated cells were visible, for example, as cytolysis, vacuolation or altered cell morphology. […]
No cytotoxic changes were detectable at concentrations >10 μM of the compounds of the invention.

hepatitis B virus = test: Antiviral action on hepatitis B virus in HepG2.2.15 cells (HBV DNA dot-blot hybridization); assay type: cell-based; conditions: 192 h, 8 days treatment, intra- or extracellular hepatitis B-specific DNA band reduced by 50% compared with untreated sample
Description: The antiviral action of the compounds of the invention on hepatitis B virus was investigated by methods based on those described by M. A. Sells et al., Proc. Natl. Acad. Sci. 84, 1005–1009 (1987) and B. E. Korba et al., Antiviral Research 19, 55–70 (1992).
The antiviral tests were carried out in 96-well microtiter plates. The first vertical row of the plate received only growth medium and HepG2.2.15 cells. It served as virus control.
Stock solutions of the test compounds (50 mM) were initially dissolved in DMSO, and further dilutions were prepared in the HepG2.2.15 growth medium. The compounds according to the invention were usually pipetted in a test concentration of 100 μM (1st test concentration) in each case into the second vertical test row of the microtiter plate and subsequently diluted in twofold steps 2^10 times in growth medium plus 2% by weight of fetal calf serum (volume 25 μl).
Each well of the microtiter plate then contained 225 μl of HepG2.2.15 cell suspension (5×10^4 cells/ml) in growth medium plus 2% by weight of fetal calf serum. The test mixture was incubated at 37° C. and 5% CO2 (v/v) for 4 days.
The supernatant was then aspirated off and discarded, and the wells received 225 μl of freshly prepared growth medium. The compounds according to the invention were each added anew as 10-fold concentrated solution in a volume of 25 μl. The mixtures were incubated for a further 4 days.
The supernatant and/or cells were then harvested and sucked by means of a vacuum onto 96-well dot-blot chambers covered with a nylon membrane (in accordance with the manufacturer's information).
After the supernatants or lysed cells had been transferred to the nylon membrane of the blot apparatus (see above), the intra- or extracellular supernatants of the HepG2.2.15 cells were denatured (1.5 M NaCl/0.5 N NaOH), neutralized (3 M NaCl/0.5 M Tris HCl, pH 7.5) and washed (2×SSC). The DNA was then baked onto the membrane by incubating the filters at 120° C. for 2–4 hours.
Detection of the viral DNA from the treated HepG2.2.15 cells on the nylon filters was usually carried out with nonradioactive, digoxigenin-labeled hepatitis B-specific DNA probes, each of which was labeled with digoxigenin, purified and employed for the hybridization in accordance with the manufacturer's information.
The prehybridization and hybridization took place in 5×SSC, 1× blocking reagent, 0.1% by weight N-lauroylsarcosine, 0.02% by weight SDS and 100 μg of herring sperm DNA. The prehybridization took place at 60° C. for 30 minutes, and the specific hybridization with 20 to 40 ng/ml of the digoxigenized, denatured HBV-specific DNA (14 hours, 60° C.). The filters were then washed.
The immunological detection of the digoxigenin-labeled DNA took place in accordance with the manufacturer's information:
The filters were washed and prehybridized in a blocking reagent (in accordance with the manufacturer's information). Hybridization was then carried out with an anti-DIG antibody coupled to alkaline phosphatase for 30 minutes. After a washing step, the substrate of alkaline phosphatase, CSPD, was added, incubated with the filters for 5 minutes, then packed in plastic film and incubated at 37° C. for a further 15 minutes. The chemiluminescence of the hepatitis B-specific DNA signals was visualized by exposing the filters to an X-ray film (incubation depending on signal strength: 10 minutes to 2 hours).
The half-maximum inhibitory concentration (IC50, 50% inhibitory concentration) was determined as the concentration at which the intra- or extracellular hepatitis B-specific band was reduced by the compound according to the invention by 50% compared with an untreated sample.

Row | melting point [°C] | Structure (SMILES) | Tox50 (HepG2.2.15 cells) [µM] | IC50 (hepatitis B virus) [nM]
1 | 161 to 162 | COC(=O)C1=C(CN2CCCC2)NC(c2ncc(F)cc2F)=NC1c1ccc(F)cc1Br (stereo not drawn) | – | –
2 | 225 to 227 | COC(=O)C1=C(CN2CCOCC2)NC(c2ncc(F)cc2F)=NC1c1ccc(Cl)cc1Cl (stereo not drawn) | – | –
3 | 168 to 170 | COC(=O)C1=C(CN2CCCC2)NC(c2ncc(F)cc2F)=NC1c1ccc(Cl)cc1Cl (stereo not drawn) | – | –
4 | 189 to 191 | COC(=O)C1=C(CN2CCSC2)NC(c2ncc(F)cc2F)=NC1c1ccc(Cl)cc1Cl (stereo not drawn) | – | –
5 | 142 to 143 | CCN(C)CC1=C(C(=O)OC)C(c2ccc(Cl)cc2Cl)N=C(c2ncc(F)cc2F)N1 (stereo not drawn) | – | –
6 | 128 to 131 | COC(=O)C1=C(CN2CCSCC2)NC(c2ncccc2F)=NC1c1ccc(F)cc1Br (stereo not drawn) | – | –
7 | 175 | COC(=O)C1=C(CN2CCSC2)NC(c2ncccc2F)=NC1c1ccc(Cl)cc1Cl (stereo not drawn) | – | –
8 | 137 | COC(=O)C1=C(CN2CCSCC2)NC(c2ncccc2F)=NC1c1ccc(Cl)cc1Cl (stereo not drawn) | – | –
9 | 172 to 173 | COC(=O)C1=C(CN2CCSC2)NC(c2ncccc2F)=NC1c1ccc(F)cc1Br (stereo not drawn) | – | –
10 | 155 | COC(=O)C1=C(CN(CCO)CCO)NC(c2ncccc2F)=NC1c1ccc(Cl)cc1Cl (stereo not drawn) | – | –
11 | 183 to 184 | COC(=O)C1=C(CN2CCSC2)NC(c2ncc(F)cc2F)=NC1c1ccc(F)cc1Br (stereo not drawn) | – | –
12 | 173 to 174 | COC(=O)C1=C(CN2CCSCC2)NC(c2ncc(F)cc2F)=NC1c1ccc(F)cc1Br (stereo not drawn) | – | –
13 | 144 to 145 | COC(=O)C1=C(CN(CCO)CCO)NC(c2ncc(F)cc2F)=NC1c1ccc(Cl)cc1Cl (stereo not drawn) | – | –
14 | 114 to 116 | COC(=O)C1=C(CN(C)CCO)NC(c2ncc(F)cc2F)=NC1c1ccc(F)cc1Br (stereo not drawn) | – | –
15 | 117 to 119 | COC(=O)C1=C(CN(C)CCO)NC(c2ncccc2F)=NC1c1ccc(F)cc1Cl (stereo not drawn) | – | –
16 | 145 | COC(=O)C1=C(CN2CCSCC2)NC(c2ncccc2F)=NC1c1ccc(F)cc1Cl (stereo not drawn) | – | –
17 | 163 to 164 | COC(=O)C1=C(CN2CCSC2)NC(c2ncccc2F)=NC1c1ccc(F)cc1Cl (stereo not drawn) | – | –
18 | 119 to 120 | COC(=O)C1=C(CN(CCO)CCO)NC(c2ncccc2F)=NC1c1ccc(F)cc1Cl (stereo not drawn) | – | –
19 | 121 | COC(=O)C1=C(CN(CCO)Cc2ccccc2)NC(c2ncccc2F)=NC1c1ccc(F)cc1Br (stereo not drawn) | – | –
20 | 135 | COC(=O)C1=C(CN(CCO)Cc2ccccc2)NC(c2ncc(F)cc2F)=NC1c1ccc(F)cc1Br (stereo not drawn) | – | –
21 | 128 | COC(=O)C1=C(CN(CCO)Cc2ccccc2)NC(c2ncccc2F)=NC1c1ccc(F)cc1Cl (stereo not drawn) | – | –
22 | 169 to 170 | COC(=O)C1=C(CN2CCSC2)NC(c2nccs2)=NC1c1ccc(Cl)cc1Cl (stereo not drawn) | – | –
23 | 133 | COC(=O)C1=C(CN(CCO)CCO)NC(c2nccs2)=NC1c1ccc(Cl)cc1Cl (stereo not drawn) | – | –
24 | 132 | COC(=O)C1=C(CN(C)CCO)NC(c2nccs2)=NC1c1ccc(Cl)cc1Cl (stereo not drawn) | – | –
25 | 123 to 126 | COC(=O)C1=C(Cn2ccnc2)NC(c2ncc(F)cc2F)=NC1c1ccc(F)cc1Br (stereo not drawn) | – | –
26 | 155 to 156 | COC(=O)C1=C(CN2CCCCC2)NC(c2ncccc2F)=NC1c1ccc(Cl)cc1Cl (stereo not drawn) | – | –
27 | – | COC(=O)C1=C(CCN2CCSC2)NC(c2ncc(F)cc2F)=NC1c1ccc(F)cc1Cl (stereo not drawn) [Example 2, Methyl 4-(2-chloro-4-fluorophenyl)-2-(3,5-difluoro-2-pyridyl)-6-[2-(1,3-thiazolidin-3-yl)-ethyl]-1,4-dihydropyrimidine-5-carboxylate] | 38 | 400
28 | – | COC(=O)C1=C(CN2CCSCC2)NC(c2ncc(F)cc2F)=N[C@H]1c1ccc(F)cc1Cl [Example 11] | >8 | 40

Row | Structure (SMILES) | melting point [°C] | Tox50 (HepG2.2.15 cells) [µM] | IC50 (hepatitis B virus) [nM]
29 | COC(=O)C1=C(CN2CCOCC2)NC(c2ncc(F)cc2F)=N[C@H]1c1ccc(F)cc1Cl [Example 5] | 178 | 40 | 2
30 | COC(=O)C1=C(CN2CCOCC2)NC(c2ncccc2F)=NC1c1ccc(Cl)cc1Cl (stereo not drawn) [Example 7] | 182 to 183 | 25 | 25
31 | COC(=O)C1=C(CN2CCOCC2)NC(c2ncc(F)cc2F)=NC1c1ccc(F)cc1Br (stereo not drawn) [Example 9] | 216 to 218 | 17 | 7
32 | COC(=O)C1=C(CN2CCSCC2)NC(c2ncc(F)cc2F)=NC1c1ccc(Cl)cc1Cl (stereo not drawn) [Example 15] | 166 to 168 | 3 | 50
33 | COC(=O)C1=C(CN2CCOCC2)NC(c2ncccc2F)=NC1c1ccc(F)cc1Br (stereo not drawn) [Example 24] | 156 to 158 | 80 | 20
34 | COC(=O)C1=C(CN2CCOCC2)NC(c2ncc(F)cc2F)=N[C@H]1c1ccc(F)cc1Br [Example 31] | 189 to 190 | 63 | 2
35 | COC(=O)C1=C(CN2CCOCC2)NC(c2ncccc2F)=NC1c1ccc(F)cc1Cl (stereo not drawn) [Example 34] | 161 to 163 | 60 | 9
36 | COC(=O)C1=C(CN2CCOCC2)NC(c2nccs2)=NC1c1ccc(Cl)cc1Cl (stereo not drawn) [Example 45] | 149 | 34 | 2
